In publication PMC6746701, “A phyB-PIF1-SPA1 kinase regulatory complex promotes photomorphogenesis in Arabidopsis” (Nature Communications, 2019):

T1: SPA1-Kin (Arabidopsis thaliana, UniProt Q9SYX2)
T1 sequence (Q9SYX2 1-545 limits assumed): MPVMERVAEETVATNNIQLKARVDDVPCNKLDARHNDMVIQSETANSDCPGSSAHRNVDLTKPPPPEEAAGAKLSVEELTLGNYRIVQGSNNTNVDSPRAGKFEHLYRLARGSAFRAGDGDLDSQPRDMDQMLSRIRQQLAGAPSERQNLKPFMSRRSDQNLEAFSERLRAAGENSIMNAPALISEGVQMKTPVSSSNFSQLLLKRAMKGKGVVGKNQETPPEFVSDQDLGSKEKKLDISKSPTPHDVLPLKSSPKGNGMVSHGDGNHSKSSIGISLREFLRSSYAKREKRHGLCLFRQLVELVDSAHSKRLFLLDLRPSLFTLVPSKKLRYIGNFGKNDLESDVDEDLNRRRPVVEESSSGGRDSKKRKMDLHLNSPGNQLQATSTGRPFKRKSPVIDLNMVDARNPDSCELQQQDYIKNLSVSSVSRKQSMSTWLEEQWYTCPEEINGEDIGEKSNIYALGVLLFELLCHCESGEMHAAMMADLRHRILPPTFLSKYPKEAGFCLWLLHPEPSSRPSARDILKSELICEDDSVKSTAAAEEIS

T2: SPA1-Kin (Arabidopsis thaliana, UniProt Q9SYX2, R517E, form not given)
T2 sequence (Q9SYX2 1-545 R517E limits assumed): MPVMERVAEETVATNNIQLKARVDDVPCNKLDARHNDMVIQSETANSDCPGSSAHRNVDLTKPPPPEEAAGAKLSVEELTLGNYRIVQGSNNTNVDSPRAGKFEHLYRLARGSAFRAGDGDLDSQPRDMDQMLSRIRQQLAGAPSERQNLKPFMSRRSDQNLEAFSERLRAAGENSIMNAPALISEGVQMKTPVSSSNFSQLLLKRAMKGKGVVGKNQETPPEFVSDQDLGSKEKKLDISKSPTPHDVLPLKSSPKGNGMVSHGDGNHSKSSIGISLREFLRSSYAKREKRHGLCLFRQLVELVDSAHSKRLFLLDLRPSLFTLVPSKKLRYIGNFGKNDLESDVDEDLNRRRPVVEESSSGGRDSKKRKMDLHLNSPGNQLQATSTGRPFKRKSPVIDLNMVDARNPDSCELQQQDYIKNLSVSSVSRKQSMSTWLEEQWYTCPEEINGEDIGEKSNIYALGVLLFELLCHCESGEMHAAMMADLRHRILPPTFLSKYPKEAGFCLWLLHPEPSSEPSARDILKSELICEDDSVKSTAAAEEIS

T3: Arabidopsis phytochrome B holoprotein purified from Pichia pastoris (Arabidopsis, UniProt P14713 1-1172, phycocyanobilin chromophore assembled)
T3 construct: phytochrome B (phyB), Arabidopsis; also called phyB; Pfr form of phyB; source: Pichia pastoris GS115, purified (ammonium sulfate, Strep-Tactin Sepharose)
T3 sequence (looked up): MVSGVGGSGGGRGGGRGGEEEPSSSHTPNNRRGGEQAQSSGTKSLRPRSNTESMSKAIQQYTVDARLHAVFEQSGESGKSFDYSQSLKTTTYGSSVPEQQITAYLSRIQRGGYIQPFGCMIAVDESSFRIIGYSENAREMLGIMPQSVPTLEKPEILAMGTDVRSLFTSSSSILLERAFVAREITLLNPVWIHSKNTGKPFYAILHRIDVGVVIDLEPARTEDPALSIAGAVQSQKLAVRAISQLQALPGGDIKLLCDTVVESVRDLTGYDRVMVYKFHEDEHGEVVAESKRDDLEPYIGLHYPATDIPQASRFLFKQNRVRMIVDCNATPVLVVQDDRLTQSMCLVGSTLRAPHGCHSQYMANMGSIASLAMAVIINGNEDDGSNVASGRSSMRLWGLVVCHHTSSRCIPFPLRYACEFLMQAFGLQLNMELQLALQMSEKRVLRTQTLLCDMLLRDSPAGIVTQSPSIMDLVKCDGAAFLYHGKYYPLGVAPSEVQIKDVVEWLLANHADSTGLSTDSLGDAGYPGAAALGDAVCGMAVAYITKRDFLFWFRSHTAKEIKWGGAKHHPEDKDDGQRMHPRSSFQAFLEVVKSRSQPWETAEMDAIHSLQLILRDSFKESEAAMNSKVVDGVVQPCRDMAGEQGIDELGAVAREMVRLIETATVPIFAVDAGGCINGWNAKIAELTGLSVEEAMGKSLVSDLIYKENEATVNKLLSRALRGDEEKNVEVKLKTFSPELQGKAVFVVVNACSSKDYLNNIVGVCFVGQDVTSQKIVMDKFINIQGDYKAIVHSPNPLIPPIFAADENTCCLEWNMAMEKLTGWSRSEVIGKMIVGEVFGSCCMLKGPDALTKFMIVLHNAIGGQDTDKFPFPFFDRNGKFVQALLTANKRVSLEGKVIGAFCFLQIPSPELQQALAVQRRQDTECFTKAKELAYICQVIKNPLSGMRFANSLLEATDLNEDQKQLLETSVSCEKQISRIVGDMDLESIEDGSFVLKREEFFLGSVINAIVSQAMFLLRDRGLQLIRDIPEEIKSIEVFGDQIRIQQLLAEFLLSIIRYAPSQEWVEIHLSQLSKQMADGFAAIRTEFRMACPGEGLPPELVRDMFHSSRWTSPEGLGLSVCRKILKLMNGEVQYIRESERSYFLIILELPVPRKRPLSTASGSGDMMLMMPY


Tests used:
SPA1-Kin [1] = target: T1, SPA1-Kin; test: in vitro autophosphorylation assay, autoradiogram; assay type: biochemical; conditions: 10 mM MgCl2, pH 7.5, 28 °C; labelled compound (gamma-32P)
SPA1-Kin [2] = target: T2, SPA1-Kin; test: in vitro autophosphorylation assay, autoradiogram; assay type: biochemical; conditions: 10 mM MgCl2, pH 7.5, 28 °C; labelled compound (gamma-32P)
[3] = target: T3, Arabidopsis phytochrome B holoprotein …; test: pull-down; tripartite complex: 2 µg GST-PIF1-strep on GST agarose beads, 1-2 µg purified phyB from Pichia pastoris, with E. coli lysate holding MBP-SPA1; anti-strep blot; conditions: both partners purified

Row | Molecule | in vitro autophosphorylation assay, autoradiogram (SPA1-Kin [1]) | in vitro autophosphorylation assay, autoradiogram (SPA1-Kin [2]) | binding result [3]
1 | Nc1ncnc2c1ncn2[C@@H]1O[C@H](COP(=O)(O)OP(=O)(O)OP(=O)(O)O)[C@@H](O)[C@H]1O [ATP] | The purified SPA1-Kin domain displayed autophosphorylation activity in a protein concentration-dependent manner | significantly reduced auto-phosphorylation activity for the SPA1-Kin^R517E (mSPA1) mutant | 
2 | GST-PIF1-strep (natural protein, Arabidopsis, UniProt Q8GZM7 1-478, looked up, source: E. coli BL21(DE3), purified (Strep-Tactin Sepharose); not shown: GST, N-terminal, kept; Strep tag, C-terminal, kept) MHHFVPDFDTDDDYVNNHNSSLNHLPRKSITTMGEDDDLMELLWQNGQVVVQNQRLHTKKPSSSPPKLLPSMDPQQQPSSDQNLFIQEDEMTSWLHYPLRDDDFCSDLLFSAAPTATATATVSQVTAARPPVSSTNESRPPVRNFMNFSRLRGDFNNGRGGESGPLLSKAVVRESTQVSPSATPSAAASESGLTRRTDGTDSSAVAGGGAYNRKGKAVAMTAPAIEITGTSSSVVSKSEIEPEKTNVDDRKRKEREATTTDETESRSEETKQARVSTTSTKRSRAAEVHNLSERKRRDRINERMKALQELIPRCNKSDKASMLDEAIEYMKSLQLQIQMMSMGCGMMPMMYPGMQQYMPHMAMGMGMNQPIPPPSFMPFPNMLAAQRPLPTQTHMAGSGPQYPVHASDPSRVFVPNQQYDPTSGQPQYPAGYTDPYQQFRGLHPTQPPQFQNQATSYPSSSRVSSSKESEDHGNHTTG |  |  | binds
